Measurements taken from patent US20090274676A1, “COMBINATION OF DEHYDROEPIANDROSTERONE OR DEHYDROEPIANDROSTERONE-SULFATE WITH A PDE-4 INHIBITOR FOR TREATMENT OF ASTHMA OR CHRONIC OBSTRUCTIVE PULMONARY DISEASE” (priority 2003, published 2009).
“And” between values parts separate entries of the source, which are not always exact repeats. Equal values may be shown once. Marks after values point to notes of the source that are not given here.

Assays:
Format in all cases: physicochemical
[1] = Solid-state stability with and without lactose at 50° C. (HPLC, DHEA formation)
Text: These conditions were used to stress the formulation in order to predict its long-term stability results. […] The primary degradant is DHEA. […] The materials on accelerated storage become more cohesive with time as evidenced by clumping during sample weighing for chemical analysis. […] This is a considerable disadvantage since lactose is the most commonly used inhalation excipient for dry powder formulations. Continuing with the virtually anhydrous form would mean limiting formulations to neat powder or undertaking more comprehensive safety studies to use a novel excipient.

[2] = Respirable dose studies, Andersen cascade impactor; settings: 90 L/min
Procedure: The respirable dose (respirable fraction) studies were performed using a standard sampler cascade impactor (Andersen), consisting of an inlet cone (an impactor pre-separator was substituted here), 9 stages, 8 collection plates, and a backup filter within 8 aluminum stages held together by 3 spring clamps and gasket O-ring seals, where each impactor stage contains multiple precision drilled orifices. When air is drawn through the sampler, multiple jets of air in each stage direct any airborne particles toward the surface of the collection plate for that stage. The size of the jets is constant for each stage, but is smaller in each succeeding stage. Whether a particle is impacted on any given stage depends upon its aerodynamic diameter. The range of particle sizes collected on each stage depends upon on the jet velocity of the stage, and the cut-off point of the previous stage. Any particle not collected on the first stage follows the air stream around the edge of the plate to the next stage, where it is either impacted or passed on to the succeeding stage, and so on, until the velocity of the jet is sufficient for impaction. To prevent particle bounce during the cascade impactor test, the individual impactor plates were coated with a hexane-grease (high vacuum) solution (100:1 ratio). As noted above, the particle size cut-off points on the impactor plates changed at different airflow rates. […] The set-up recommended by the United States Pharmacopeia for testing dry powder inhalers consists of a mouthpiece adapter (silicone in this case) attached to a glass throat (modified 50 ml round-bottom flask) and a glass distal pharynx (induction port) leading top the pre-separator and Andersen sampler. The pre-separator sample includes washings from the mouthpiece adaptor, glass throat, distal glass pharynx and pre-separator. 5 ml acetonitrile:water (1:1 ratio) solvent was placed in the pre-separator before performing the cascade impactor experiment, that were performed in duplicate with 3 different dry powder inhaler devices and at 3 airflow rates, 30, 60 and 90 L/min. The drug collected on the cascade impactor plates were assayed by the HPLC, and a drug mass balance was performed for each Diskhaler and multi-dose cascade impactor experiment consisting of determining the amount of drug left in the blister, the amount of drug remaining in the device (Diskhaler only), the non-respirable amount of the dose retained on the silicone rubber mouth piece adaptor, glass throat, glass distal pharynx and pre-separator, all combined into one sample, and the respirable dose, i.e. Stage 2 through filter impactor plates for airflow rates of 30 and 60 L/min and Stages 1 through filter impactor plates for 90 L/min experiments.
The cascade impactor experiments were conducted as described in Example 3. Four cascade impactor experiments were done, three with a IDL multi-dose device and one with a Diskhaler, all at 90 L/min. […] However, the % respirable dose was still low. This was likely the result of moisture absorption of the anhydrous form.

[3] = Emitted dose studies with dry powder inhalers; settings: for Emitted Dose (%): single runs
Procedure: DHEA-S powder was collected in Nephele tubes and assayed by HPLC. Triplicate experiments were performed at each airflow rate for each of the three dry powder inhalers tested (Rotahaler, Diskhaler and IDL's DPI devices). A Nephele tube was fitted at one end with a glass filter (Gelman Sciences, Type A/E, […]), which in turn was connected to the airflow line to collect the emitted dose of the drug from the respective dry powder inhaler being tested. A silicone adapter, with an opening to receive the mouthpiece of the respective dry powder inhaler being tested at the other end of the Nephele tube was secured. A desired airflow, of 30, 60, or 90 L/min, was achieved through the Nephele tube. Each dry powder inhaler's mouthpiece was inserted then into the silicone rubber adapter, and the airflow was continued for about four s after which the tube was removed and an end-cap screwed onto the end of each tube. The end-cap of the tube not containing the filter was removed and 10 ml of an HPLC grade water-acetonitrile solution (1:1) added to the tube, the end-cap reattached, and the tube shaken for 1-2 minutes. The end-cap then was removed from the tube and the solution was transferred to a 10 ml plastic syringe fitted with a filter (Cameo 13N Syringe Filter, Nylon, 0.22 μm). An aliquot of the solution was directly filtered into an HPLC vial for later drug assay via HPLC. […] When the micronized DHEA-S (only vial B used), was weighed for placement into the gelatin capsule or blister, there appeared to be a few aggregates of the micronized powder. […] Table 2 summarizes the results for the Rotahaler experiments at 3 different flow rates, for the Diskhaler experiments at 3 different flow rates, and of the multi-dose experiments at 3 different flow rates.

[4] = Multi-dose, oven dried drug for 80 minutes
[5] = Multi-dose, oven dried drug for 20 hours
[6] = Diskhaler (2nd study), 87.8 L/min
[7] = IDL Multi-Dose (2nd study), 87.8 L/min

## C[C@]12CC[C@H](OS(=O)(=O)[O-])CC1=CC[C@@H]1[C@@H]2CC[C@]2(C)C(=O)CC[C@@H]12.[Na+] [Anhydrous DHEA-S]
[1]; 50° C., 1 week
  DHEA % formed: 9.817%
[1]; 50° C., 2 weeks
  DHEA % formed: 14.954%
[1]; 50° C., 4 weeks
  DHEA % formed: 20.171%
[1]; Control, initial (Time=0)
  DHEA % formed: 2.774%
[1]; Control, sealed, 25° C., 1 week
  DHEA % formed: 2.694%
[1]; Control, sealed, 25° C., 2 weeks
  DHEA % formed: 2.370%
[1]; Control, sealed, 25° C., 4 weeks
  DHEA % formed: 2.666%
[2]
  Respirable dose of spray-dried compared to micronized anhydrous DHEA-S: two-fold increase
[2]; [4]
  Blister (%): 2.8%
  Preseparator (%): 78.7%
  Respirable Dose (%): 4.6%
[2]; Multi-dose, oven dried drug for 80 minutes, obtained by difference
  Device (%): 13.9*^a %
[2]; [5]
  Blister (%): 5.0%
  Preseparator (%): 55.9%
  Respirable Dose (%): 1.2%
[2]; Multi-dose, oven dried drug for 20 hours, obtained by difference
  Device (%): 37.9*^a %
[2]; jet-milled drug, Diskhaler
  Blister (%): 6.6% and 10.1%
  Device (%): 22.1% and 13.3%
  Preseparator (%): 72.7% and 60.2%
  Respirable Dose (%): 2.9% and 2.4%
[2]; jet-milled drug, Multi-dose
  Blister (%): 3.8% and 3.9%
  Preseparator (%): 73.3% and 65.8%
  Respirable Dose (%): 3.6% and 3.8%
[2]; jet-milled drug, Multi-dose, obtained by difference
  Device (%): 19.3*^a % and 26.5*^a %
[2]; spray-dried drug, Diskhaler
  Blisters (%): 29.0%
  Device (%): 11.2%
  Preseparator (%): 56.8%
  Respirable Dose (%): 5.6%
[3]; [6]
  Emitted Dose (%), Average: 59.1%
  Emitted Dose (%): 57.9% and 59.9% and 59.5%
[3]; Diskhaler, 30 L/min
  Emitted Dose (%), Average: 58.6%
  Emitted Dose (%): 53.8% and 53.4% and 68.7%
[3]; Diskhaler, 60 L/min
  Emitted Dose (%), Average: 68.2%
  Emitted Dose (%): 63.4% and 38.9% and 58.0%
[3]; Diskhaler, 87.8 L/min
  Emitted Dose (%), Average: 51.3%
  Emitted Dose (%): 65.7% and 41.6% and 46.5%
[3]; [7]
  Emitted Dose (%), Average: 84.8%
  Emitted Dose (%): 85.7% and 84.6% and 84.0%
[3]; IDL Multi-Dose, 30 L/min
  Emitted Dose (%), Average: 85.4%
  Emitted Dose (%): 78.9% and 88.2% and 89.2%
[3]; IDL Multi-Dose, 60 L/min
  Emitted Dose (%), Average: 84.0%
  Emitted Dose (%): 78.8% and 83.7% and 89.6%
[3]; IDL Multi-Dose, 87.8 L/min
  Emitted Dose (%), Average: 72.6%
  Emitted Dose (%): 71.3% and 79.0% and 67.4%
[3]; Rotahaler (2nd study), 87.8 L/min
  Emitted Dose (%), Average: 31.5%
[3]; Rotahaler, 30 L/min
  Emitted Dose (%), Average: 34.7%
[3]; Rotahaler, 60 L/min
  Emitted Dose (%), Average: 57.3%
  Emitted Dose (%): 58.1% and 68.2% and 45.7%
[3]; Rotahaler, 87.8 L/min
  Emitted Dose (%), Average: 69.7%
  Emitted Dose (%): 73.2% and 67.1% and 68.7%
